Earlier results, collected in patent US6387861B1, “Detergent compositions” (Unilever Home & Personal Care USA division of Conopco, Inc., priority 1999, dated 2002).
Where two headings read alike, the source gives them in different places.

Settings: 20° C.

| SMILES | Water Solubility (other common materials) | Water Solubility (grams of solid to form a saturated solution in 100 grams of water, highly water-soluble materials) |
| --- | --- | --- |
| O=BO[O-].[Na+] [Sodium perborate anhydrous] | 3.7 g/100 g | – |
| O=P(O)(O)OP(=O)(O)OP(=O)(O)O [Sodium tripolyphosphate anhydrous] | 15 g/100 g | – |
| NC(N)=O [Urea] | – | >100 g/100 g |
